From PubChem BioAssay (NCI)
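Abbreviation: GI50, concentration required for 50% inhibition of growth. TGI marks complete inhibition of growth.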

Tests used:
Assay in all cases: inhibition of tumour cell growth, NCI panel, 384-well format
SK-MEL-28 melanoma = system: SK-MEL-28 melanoma
HCT-116 colon = system: HCT-116 colon
SN12C renal = system: SN12C renal
SNB-75 CNS = system: SNB-75 CNS
NCI-H322M lung = system: NCI-H322M lung
SNB-19 CNS = system: SNB-19 CNS
MALME-3M melanoma = system: MALME-3M melanoma
HOP-62 NSCLC = system: HOP-62 NSCLC
HOP-92 NSCLC = system: HOP-92 NSCLC
EKVX NSCLC = system: EKVX NSCLC
A498 renal = system: A498 renal
NCI/ADR-RES ovarian = system: NCI/ADR-RES ovarian
MDA-MB-435 melanoma = system: MDA-MB-435 melanoma
ACHN renal = system: ACHN renal
OVCAR-3 ovarian = system: OVCAR-3 ovarian
U251 glioblastoma = system: U251 glioblastoma
NCI-H226 lung = system: NCI-H226 lung
IGROV1 ovarian = system: IGROV1 ovarian
CAKI-1 renal = system: CAKI-1 renal
SF-295 CNS = system: SF-295 CNS
NCI-H522 lung = system: NCI-H522 lung
LOX IMVI melanoma = system: LOX IMVI melanoma
CCRF-CEM leukemia = system: CCRF-CEM leukemia
MCF7 breast = system: MCF7 breast
DU-145 prostate = system: DU-145 prostate
NCI-H460 NSCLC = system: NCI-H460 NSCLC
SF-539 CNS = system: SF-539 CNS
OVCAR-8 ovarian = system: OVCAR-8 ovarian
MDA-MB-231 breast = system: MDA-MB-231 breast
UACC-62 melanoma = system: UACC-62 melanoma
RPMI-8226 leukemia = system: RPMI-8226 leukemia
UO-31 renal = system: UO-31 renal
SW-620 colon = system: SW-620 colon
UACC-257 melanoma = system: UACC-257 melanoma
A549 NSCLC = system: A549 NSCLC
NCI-H23 lung = system: NCI-H23 lung
OVCAR-5 ovarian = system: OVCAR-5 ovarian
BT-549 breast = system: BT-549 breast
K-562 leukemia = system: K-562 leukemia
HL-60(TB) leukemia = system: HL-60(TB) leukemia
COLO 205 colon = system: COLO 205 colon
MDA-MB-468 breast = system: MDA-MB-468 breast
SK-OV-3 ovarian = system: SK-OV-3 ovarian
KM12 colon = system: KM12 colon
SF-268 CNS = system: SF-268 CNS
RXF 393 renal = system: RXF 393 renal
HS 578T breast = system: HS 578T breast
HCC-2998 colon = system: HCC-2998 colon
HCT-15 colon = system: HCT-15 colon
TK-10 renal = system: TK-10 renal
SK-MEL-5 melanoma = system: SK-MEL-5 melanoma
HT29 colon = system: HT29 colon
M14 melanoma = system: M14 melanoma
786-0 renal = system: 786-0 renal
T-47D breast = system: T-47D breast
MOLT-4 leukemia = system: MOLT-4 leukemia
PC-3 prostate = system: PC-3 prostate
OVCAR-4 ovarian = system: OVCAR-4 ovarian

`CN(C(=O)c1ccc(F)cc1C(F)(F)F)C1CCN(c2nnc(-c3ccnn3C)c3ccccc23)CC1` showed a GI50 (SK-MEL-28 melanoma) of over 100 µM, a TGI (SK-MEL-28 melanoma) of over 100 µM and a GI50 (HCT-116 colon) of 47.7 µM. The TGI (HCT-116 colon) was over 100 µM, the GI50 (SN12C renal) was over 100 µM and the TGI (SN12C renal) was over 100 µM. It also gave a GI50 (SNB-75 CNS) of 58.5 µM, a TGI (SNB-75 CNS) of over 100 µM and a GI50 (NCI-H322M lung) of 28 µM. For the same compound, the TGI (NCI-H322M lung) was over 100 µM, the GI50 (SNB-19 CNS) was 89.5 µM and the TGI (SNB-19 CNS) was over 100 µM. It also gave a GI50 (MALME-3M melanoma) of 65 µM, a TGI (MALME-3M melanoma) of over 100 µM and a GI50 (HOP-62 NSCLC) of 13.9 µM. The TGI (HOP-62 NSCLC) was over 100 µM, the GI50 (HOP-92 NSCLC) was 48.3 µM and the TGI (HOP-92 NSCLC) was over 100 µM. For the same compound, the GI50 (EKVX NSCLC) was 21.5 µM, the TGI (EKVX NSCLC) was over 100 µM and the GI50 (A498 renal) was 46.7 µM. For the same compound, the TGI (A498 renal) was over 100 µM, the GI50 (NCI/ADR-RES ovarian) was 33.3 µM and the TGI (NCI/ADR-RES ovarian) was over 100 µM. It also gave a GI50 (MDA-MB-435 melanoma) of 63.1 µM, a TGI (MDA-MB-435 melanoma) of over 100 µM and a GI50 (ACHN renal) of over 100 µM. For the same compound, the TGI (ACHN renal) was over 100 µM, the GI50 (OVCAR-3 ovarian) was 85.6 µM and the TGI (OVCAR-3 ovarian) was over 100 µM. The GI50 (U251 glioblastoma) was 54.3 µM, the TGI (U251 glioblastoma) was over 100 µM and the GI50 (NCI-H226 lung) was 32.1 µM. The TGI (NCI-H226 lung) was over 100 µM, the GI50 (IGROV1 ovarian) was over 100 µM and the TGI (IGROV1 ovarian) was over 100 µM. The GI50 (CAKI-1 renal) was 47.6 µM, the TGI (CAKI-1 renal) was over 100 µM and the GI50 (SF-295 CNS) was over 100 µM. It also gave a TGI (SF-295 CNS) of over 100 µM, a GI50 (NCI-H522 lung) of 35.5 µM and a TGI (NCI-H522 lung) of over 100 µM. For the same compound, the GI50 (LOX IMVI melanoma) was 46.3 µM, the TGI (LOX IMVI melanoma) was over 100 µM and the GI50 (CCRF-CEM leukemia) was 12.9 µM. The TGI (CCRF-CEM leukemia) was 44.8 µM, the GI50 (MCF7 breast) was 29.9 µM and the TGI (MCF7 breast) was over 100 µM. The GI50 (DU-145 prostate) was 86.2 µM, the TGI (DU-145 prostate) was over 100 µM and the GI50 (NCI-H460 NSCLC) was 35.7 µM. The TGI (NCI-H460 NSCLC) was over 100 µM, the GI50 (SF-539 CNS) was over 100 µM and the TGI (SF-539 CNS) was over 100 µM. For the same compound, the GI50 (OVCAR-8 ovarian) was 34.7 µM, the TGI (OVCAR-8 ovarian) was over 100 µM and the GI50 (MDA-MB-231 breast) was 47 µM. It also gave a TGI (MDA-MB-231 breast) of over 100 µM, a GI50 (UACC-62 melanoma) of over 100 µM and a TGI (UACC-62 melanoma) of over 100 µM. It also gave a GI50 (RPMI-8226 leukemia) of 22.5 µM, a TGI (RPMI-8226 leukemia) of over 100 µM and a GI50 (UO-31 renal) of 58.7 µM. It also gave a TGI (UO-31 renal) of over 100 µM, a GI50 (SW-620 colon) of over 100 µM and a TGI (SW-620 colon) of over 100 µM. The GI50 (UACC-257 melanoma) was 32 µM, the TGI (UACC-257 melanoma) was over 100 µM and the GI50 (A549 NSCLC) was 44.8 µM. For the same compound, the TGI (A549 NSCLC) was over 100 µM, the GI50 (NCI-H23 lung) was 30.1 µM and the TGI (NCI-H23 lung) was over 100 µM. For the same compound, the GI50 (OVCAR-5 ovarian) was over 100 µM, the TGI (OVCAR-5 ovarian) was over 100 µM and the GI50 (BT-549 breast) was 26.7 µM. For the same compound, the TGI (BT-549 breast) was over 100 µM, the GI50 (K-562 leukemia) was 15.1 µM and the TGI (K-562 leukemia) was over 100 µM. It also gave a GI50 (HL-60(TB) leukemia) of 18.7 µM, a TGI (HL-60(TB) leukemia) of 43.9 µM and a GI50 (COLO 205 colon) of 42.9 µM. The TGI (COLO 205 colon) was over 100 µM, the GI50 (MDA-MB-468 breast) was 3.8 µM and the TGI (MDA-MB-468 breast) was 21.3 µM. For the same compound, the GI50 (SK-OV-3 ovarian) was 89.2 µM, the TGI (SK-OV-3 ovarian) was over 100 µM and the GI50 (KM12 colon) was over 100 µM. The TGI (KM12 colon) was over 100 µM, the GI50 (SF-268 CNS) was 13.9 µM and the TGI (SF-268 CNS) was 71 µM. It also gave a GI50 (RXF 393 renal) of 20.9 µM, a TGI (RXF 393 renal) of 74.4 µM and a GI50 (HS 578T breast) of over 100 µM. It also gave a TGI (HS 578T breast) of over 100 µM, a GI50 (HCC-2998 colon) of 22.4 µM and a TGI (HCC-2998 colon) of over 100 µM. For the same compound, the GI50 (HCT-15 colon) was 44.4 µM, the TGI (HCT-15 colon) was over 100 µM and the GI50 (TK-10 renal) was over 100 µM. It also gave a TGI (TK-10 renal) of over 100 µM, a GI50 (SK-MEL-5 melanoma) of 8.15 µM and a TGI (SK-MEL-5 melanoma) of 21.2 µM. It also gave a GI50 (HT29 colon) of 76.6 µM, a TGI (HT29 colon) of over 100 µM and a GI50 (M14 melanoma) of 58.1 µM. The TGI (M14 melanoma) was over 100 µM, the GI50 ([…]-0 renal) was over 100 µM and the TGI (786-0 renal) was over 100 µM. The GI50 (T-47D breast) was 2.73 µM, the TGI (T-47D breast) was 12.5 µM and the GI50 (MOLT-4 leukemia) was 13 µM. For the same compound, the TGI (MOLT-4 leukemia) was 26.4 µM, the GI50 (PC-3 prostate) was 44.5 µM and the TGI (PC-3 prostate) was over 100 µM. The GI50 (OVCAR-4 ovarian) was 67.4 µM and the TGI (OVCAR-4 ovarian) was over 100 µM.
